Test results from publication PMC8159961, “Exploring protein hotspots by optimized fragment pharmacophores” (Nature Communications, 2021).
“Also recorded” adds a separate entry of the source. Like-named read-outs stand apart in the source and are kept apart here.

Columns and labels:
human 5-HT1A receptor = biological target: T1, human 5-HT1A receptor (Homo sapiens, UniProt P08908); assay: GPCR radioligand binding assay, [3H]-8-OH-DPAT displacement, HEK293 membranes; details: for experimental hit status, 5-HT1: 1 = hit, 0 = no hit, tested at 10 µM, hit = 50% or stronger inhibition
T1 construct: expressed in transfected cells
T1 sequence (P08908 1-422): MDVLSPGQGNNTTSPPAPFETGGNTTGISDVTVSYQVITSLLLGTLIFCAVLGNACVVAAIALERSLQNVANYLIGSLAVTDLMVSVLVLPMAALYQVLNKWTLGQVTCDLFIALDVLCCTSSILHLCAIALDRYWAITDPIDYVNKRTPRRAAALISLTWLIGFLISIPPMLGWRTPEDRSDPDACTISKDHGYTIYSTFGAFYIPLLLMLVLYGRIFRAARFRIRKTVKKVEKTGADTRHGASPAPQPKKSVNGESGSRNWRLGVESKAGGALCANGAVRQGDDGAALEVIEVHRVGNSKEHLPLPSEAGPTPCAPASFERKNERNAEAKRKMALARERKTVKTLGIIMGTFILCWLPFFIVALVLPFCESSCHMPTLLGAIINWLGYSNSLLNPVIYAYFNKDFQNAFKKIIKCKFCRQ

human 5-HT6 receptor = biological target: T2, human 5-HT6 receptor (Homo sapiens, UniProt P50406); assay: GPCR radioligand binding assay, [3H]-LSD displacement, HEK293 membranes; details: for experimental hit status, 5-HT6: 1 = hit, 0 = no hit, tested at 10 µM, hit = 50% or stronger inhibition
T2 construct: expressed in transfected cells

human 5-HT7b receptor = biological target: T3, human 5-HT7b receptor (Homo sapiens, UniProt P34969); assay: GPCR radioligand binding assay, [3H]-5-CT displacement, HEK293 membranes; details: for experimental hit status, 5-HT7: 1 = hit, 0 = no hit, tested at 10 µM, hit = 50% or stronger inhibition
T3 construct: expressed in transfected cells

human thrombin = biological target: T4, human thrombin (Homo sapiens, UniProt P00734); assay: Protease inhibitory assay, chromogenic substrate S-2238; assay type: biochemical; details: 1 = hit, 0 = no hit; screening at 200 µM
T4 construct: human thrombin; purchased Sigma-Aldrich

bovine factor Xa = biological target: T5, bovine factor Xa (Bos taurus, UniProt P00743); assay: Protease inhibitory assay, chromogenic substrate S-2222; assay type: biochemical; details: 1 = hit, 0 = no hit; screening at 200 µM
T5 construct: bovine factor Xa, Chromogenix, 2 nkat/mL; purchased Chromogenix

recombinant SETD2 = biological target: T6, recombinant SETD2 (Homo sapiens, UniProt Q9BYW2); assay: SETD2 Chemiluminescence assay (H3K36 tri-methylation); assay type: biochemical; details: 1 = hit, 0 = no hit
T6 construct: purchased BPS Bioscience 52060
T6 sequence (Q9BYW2 1418-1714 limits assumed): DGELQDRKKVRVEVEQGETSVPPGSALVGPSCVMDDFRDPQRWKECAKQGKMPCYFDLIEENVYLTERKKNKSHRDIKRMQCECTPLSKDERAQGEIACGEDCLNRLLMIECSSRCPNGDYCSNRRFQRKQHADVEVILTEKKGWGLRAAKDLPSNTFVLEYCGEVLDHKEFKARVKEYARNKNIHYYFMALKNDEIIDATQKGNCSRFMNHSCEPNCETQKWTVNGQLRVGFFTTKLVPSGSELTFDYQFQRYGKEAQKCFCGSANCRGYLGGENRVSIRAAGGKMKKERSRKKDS

[1] = biological target: T7, SARS-CoV-2 NSP3 macrodomain (Severe acute respiratory syndrome coronavirus 2, UniProt P0DTD1); assay: NSP3 macrodomain HTRF assay, displacement of ADP-ribose-conjugated biotin peptide; assay type: binding
SARS-CoV-2 = assay: microbe, parasite or virus in culture; assay type: cell-based; details: for antiviral activity in the cellular assay (in words): infected Vero E6 cells
[2] = biological target: T7, SARS-CoV-2 NSP3 macrodomain; assay: X-ray fragment screening (XChem, crystal soaking); assay type: binding
[3] = 10 µM, read-out: 5-HT1A % Inhibition by plate position
[4] = 5-HT1A, average of exp_1 and exp_2, read-out: %inh 5-HT1A average
[5] = 5-HT1A, average, values below 0 and above 100% were set as 0 and 100, read-out: %inh 5-HT1A corrected*
[6] = 5-HT1A, replicate exp_1, read-out: %inh 5-HT1A exp_1
[7] = 5-HT1A, replicate exp_2, read-out: %inh 5-HT1A exp_2
[8] = 10 µM, read-out: 5-HT6 % Inhibition by plate position
[9] = 5-HT6, average of exp_1 and exp_2, read-out: %inh 5-HT6 average
[10] = 5-HT6, average, values below 0 and above 100% were set as 0 and 100, read-out: %inh 5-HT6 corrected*
[11] = 5-HT6, replicate exp_1, read-out: %inh 5-HT6 exp_1
[12] = 5-HT6, replicate exp_2, read-out: %inh 5-HT6 exp_2
[13] = 10 µM, read-out: 5-HT7 % Inhibition by plate position
[14] = 5-HT7, average of exp_1 and exp_2, read-out: %inh 5-HT7 average
[15] = 5-HT7, average, values below 0 and above 100% were set as 0 and 100, read-out: %inh 5-HT7 corrected*
[16] = 5-HT7, replicate exp_1, read-out: %inh 5-HT7 exp_1
[17] = 5-HT7, replicate exp_2, read-out: %inh 5-HT7 exp_2

T2 sequence (P50406 whole entry): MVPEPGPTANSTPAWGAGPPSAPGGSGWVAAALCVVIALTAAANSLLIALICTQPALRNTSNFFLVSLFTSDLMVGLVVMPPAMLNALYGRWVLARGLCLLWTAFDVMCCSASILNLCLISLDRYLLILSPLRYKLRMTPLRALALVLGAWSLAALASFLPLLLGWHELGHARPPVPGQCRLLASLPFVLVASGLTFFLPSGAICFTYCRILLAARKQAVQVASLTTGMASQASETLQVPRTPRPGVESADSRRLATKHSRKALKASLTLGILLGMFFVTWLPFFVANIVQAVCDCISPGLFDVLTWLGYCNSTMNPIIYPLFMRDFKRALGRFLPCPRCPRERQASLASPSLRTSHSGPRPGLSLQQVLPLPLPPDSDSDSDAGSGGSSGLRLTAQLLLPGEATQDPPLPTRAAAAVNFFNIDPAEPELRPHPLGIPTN
T3 sequence (P34969 1-432): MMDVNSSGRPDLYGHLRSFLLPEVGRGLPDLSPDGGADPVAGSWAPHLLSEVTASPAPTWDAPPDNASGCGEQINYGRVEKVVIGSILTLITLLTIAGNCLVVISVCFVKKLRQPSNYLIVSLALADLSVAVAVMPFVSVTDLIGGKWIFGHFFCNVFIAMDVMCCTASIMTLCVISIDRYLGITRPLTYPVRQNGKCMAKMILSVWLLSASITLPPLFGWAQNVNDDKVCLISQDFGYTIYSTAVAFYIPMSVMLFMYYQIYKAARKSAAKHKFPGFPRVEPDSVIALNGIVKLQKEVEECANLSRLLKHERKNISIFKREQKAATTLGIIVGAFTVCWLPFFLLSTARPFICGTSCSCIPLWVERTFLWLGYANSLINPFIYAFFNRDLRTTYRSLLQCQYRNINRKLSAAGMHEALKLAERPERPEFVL
T5 sequence (P00743 234-492 limits assumed): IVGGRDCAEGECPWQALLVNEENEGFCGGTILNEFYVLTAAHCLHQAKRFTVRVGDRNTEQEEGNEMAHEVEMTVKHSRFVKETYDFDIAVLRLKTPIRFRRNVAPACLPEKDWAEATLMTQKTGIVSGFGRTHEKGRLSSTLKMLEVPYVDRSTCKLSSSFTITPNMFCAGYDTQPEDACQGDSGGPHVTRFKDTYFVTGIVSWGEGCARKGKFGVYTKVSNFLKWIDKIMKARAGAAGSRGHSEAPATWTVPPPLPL
T5 sequence (P00743 41-180 partner limits assumed): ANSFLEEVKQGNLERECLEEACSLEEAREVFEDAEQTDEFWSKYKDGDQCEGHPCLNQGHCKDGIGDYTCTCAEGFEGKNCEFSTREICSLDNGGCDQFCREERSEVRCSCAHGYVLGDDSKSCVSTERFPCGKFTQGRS

`c1cnc2ncccc2c1` [SX003] was tested, and the inhibition at 10 µM (human 5-HT1A receptor; [3]) was 22%, the “experimental hit status, 5-HT1” value (human 5-HT1A receptor) was 0 and the inhibition at 10 µM (human 5-HT1A receptor; [4]) was 22%. The inhibition at 10 µM (human 5-HT1A receptor; [5]) was 22%, the inhibition at 10 µM (human 5-HT1A receptor; [6]) was 24% and the inhibition at 10 µM (human 5-HT1A receptor; [7]) was 21%. For the same compound, the inhibition at 10 µM (human 5-HT6 receptor; [8]) was 48%, the “experimental hit status, 5-HT6” value (human 5-HT6 receptor) was 0 and the inhibition at 10 µM (human 5-HT6 receptor; [9]) was 48%. For the same compound, the inhibition at 10 µM (human 5-HT6 receptor; [10]) was 48%, the inhibition at 10 µM (human 5-HT6 receptor; [11]) was 55% and the inhibition at 10 µM (human 5-HT6 receptor; [12]) was 41%. For the same compound, the inhibition at 10 µM (human 5-HT7b receptor; [13]) was 34%, the “experimental hit status, 5-HT7” value (human 5-HT7b receptor) was 0 and the inhibition at 10 µM (human 5-HT7b receptor; [14]) was 34%. The inhibition at 10 µM (human 5-HT7b receptor; [15]) was 34%, the inhibition at 10 µM (human 5-HT7b receptor; [16]) was 32% and the inhibition at 10 µM (human 5-HT7b receptor; [17]) was 36%. The “experimental hit status, Thrombin” value (human thrombin) was 0, the “experimental hit status, Factor Xa” value (bovine factor Xa) was 0 and the “experimental hit status, SETD2” value (recombinant SETD2) was 0. For the same compound, the “activity in the NSP3 enzyme assay (in words)” value ([1]; HTRF assay, up to 5 mM concentration) was “no activity”, the “antiviral activity in the cellular assay (in words)” value (SARS-CoV-2) was “inactive in cells” and the “X-ray screen result, binding site” value [2] was “identified in the active site”.
With `Nc1nnc2ccccn12` [SX005] the inhibition at 10 µM (human 5-HT1A receptor; [3]) was 0%, the “experimental hit status, 5-HT1” value (human 5-HT1A receptor) was 0 and the inhibition at 10 µM (human 5-HT1A receptor; [4]) was -14%. For the same compound, the inhibition at 10 µM (human 5-HT1A receptor; [5]) was 0%, the inhibition at 10 µM (human 5-HT1A receptor; [6]) was 4% and the inhibition at 10 µM (human 5-HT1A receptor; [7]) was -32%. The inhibition at 10 µM (human 5-HT6 receptor; [8]) was 40%, the “experimental hit status, 5-HT6” value (human 5-HT6 receptor) was 0 and the inhibition at 10 µM (human 5-HT6 receptor; [9]) was 40%. The inhibition at 10 µM (human 5-HT6 receptor; [10]) was 40%, the inhibition at 10 µM (human 5-HT6 receptor; [11]) was 45% and the inhibition at 10 µM (human 5-HT6 receptor; [12]) was 35%. The inhibition at 10 µM (human 5-HT7b receptor; [13]) was 0%, the “experimental hit status, 5-HT7” value (human 5-HT7b receptor) was 0 and the inhibition at 10 µM (human 5-HT7b receptor; [14]) was -0.039%. For the same compound, the inhibition at 10 µM (human 5-HT7b receptor; [15]) was 0%, the inhibition at 10 µM (human 5-HT7b receptor; [16]) was -4.51% and the inhibition at 10 µM (human 5-HT7b receptor; [17]) was 4.43%. For the same compound, the “experimental hit status, Thrombin” value (human thrombin) was 0, the “experimental hit status, Factor Xa” value (bovine factor Xa) was 0 and the “experimental hit status, SETD2” value (recombinant SETD2) was 0. For the same compound, the “% SARS-CoV-2 macrodomain inhibition” value ([1]; 39.0625 µM, replicates) was 11.4%, the inhibition at 39.0625 µM ([1]; 39.0625 µM, replicates) was 10.2% and the “% SARS-CoV-2 macrodomain inhibition” value ([1]; 78.125 µM, replicates) was 23.5%. The inhibition at 78.125 µM ([1]; 78.125 µM, replicates) was 22.6%, the “% SARS-CoV-2 macrodomain inhibition” value ([1]; 156.25 µM, replicates) was 31.2% and the inhibition at 156.25 µM ([1]; 156.25 µM, replicates) was 27.9%. The “% SARS-CoV-2 macrodomain inhibition” value ([1]; 312.5 µM, replicates) was 41.8%, the inhibition at 312.5 µM ([1]; 312.5 µM, replicates) was 41% and the “% SARS-CoV-2 macrodomain inhibition” value ([1]; 625 µM, replicates) was 55.4%. The inhibition at 625 µM ([1]; 625 µM, replicates) was 54.1%, the “% SARS-CoV-2 macrodomain inhibition” value ([1]; 1250 µM, replicates) was 64.7% and the inhibition at 1250 µM ([1]; 1250 µM, replicates) was 65%. For the same compound, the “% SARS-CoV-2 macrodomain inhibition” value ([1]; 2500 µM, replicates) was 70.5%, the inhibition at 2500 µM ([1]; 2500 µM, replicates) was 72% and the “% SARS-CoV-2 macrodomain inhibition” value ([1]; 5000 µM, replicates) was 74.9%. It also gave an inhibition at 5000 µM ([1]; 5000 µM, replicates) of 74.7%, an IC50 ([1]; IC50, SARS-CoV-2 macrodomain inhibition) of 465 µM and an inhibition at 1000 µM (SARS-CoV-2; Severe acute respiratory syndrome coronavirus 2, Vero C1008, read-out: Inhibition (%) of viral copy numbers, 1000 uM, replicates) of 83.7%. The “antiviral activity in the cellular assay (in words)” value (SARS-CoV-2) was “high micromolar range; also recorded: Significant antiviral activities” and the “X-ray screen result, binding site” value [2] was “identified in the active site”.
